Legend:
[1] = tested on: HER2 high-expressing cancer cells NCI-N87; experiment: Cytotoxicity assay (CellTiter-Glo cell viability), NCI-N87; format: cell-based, human; settings: for IC50: Homo sapiens, NCI-N87, 96 h, 96 h treatment
Protocol: (§1) Cytotoxicity assays were performed using HER2 high-expressing cancer cells NCI-N87 (FIG. 1) and SK-BR-3 (FIG. 2), as well as a HER2 negative cell line MDA-MB-468 (FIG. 3) to analyze the effect of conjugates on tumor cell proliferation. The tested articles included conjugates EC302-2-4-1-1 and EC301-2-1-1-1, and a small molecule eribulin (structure is depicted above). In brief, 5000 cells were plated in 96-well plates, and cells were able to attach overnight. Cells were treated with indicated drugs with various concentrations for 96 h. Cell viabilities were examined by CellTiter-Glo® Luminescent Cell Viability Assay, and percentage of cell viability was calculated.
as §1, with “4)” for “1)”, “5),” for “2),”, “6)” for “3)”, “The tested articles included conjugates EC302-2-4-1-1 and EC301-2-1-1-1, and a small molecule eribulin (structure is depicted above).” left out

[2] = tested on: FGFR3 high-expressing cancer cells RT112/84; experiment: Cytotoxicity assay (CellTiter-Glo cell viability), RT112/84; format: cell-based; settings: RT112/84, FGFR3-positive; 96 h
Protocol: (§2) Cytotoxicity assays were performed using FGFR3 high-expressing cancer cells RT112/84 and RT4, FGFR3 negative cancer cell MCF-7 (FIG. 7) to analyze the effect of conjugates on tumor cell proliferation. The tested articles included conjugate EC302-2-4-1-2, and a small molecule eribulin (structure is depicted above). In brief, 2000 cells (RT112/84) or 5000 cells (RT4 or MCF-7) were plated in 96-well plates, and cells were able to attach overnight. Cells were treated with indicated drugs with various concentrations for 96 h. Cell viabilities were examined by CellTiter-Glo® Luminescent Cell Viability Assay, and percentage of cell viability was calculated.

[3] = tested on: FGFR3 high-expressing cancer cells RT4; experiment: Cytotoxicity assay (CellTiter-Glo cell viability), RT4; format: cell-based; settings: RT4, FGFR3-positive; 96 h
Protocol: as §2

[4] = tested on: HER2 negative cell line MDA-MB-468; experiment: Cytotoxicity assay (CellTiter-Glo cell viability), MDA-MB-468; format: cell-based; settings: for IC50: Homo sapiens, MDA-MB-468, 96 h, 96 h treatment
Protocol: as §1, with “The tested articles included conjugates EC302-2-4-1-1 and EC301-2-1-1-1, and a small molecule eribulin (structure is depicted above).” left out
as §1, with “4)” for “1)”, “5),” for “2),”, “6)” for “3)”, “The tested articles included conjugates EC302-2-4-1-1 and EC301-2-1-1-1, and a small molecule eribulin (structure is depicted above).” left out

[5] = tested on: FGFR3 negative cancer cell MCF-7; experiment: Cytotoxicity assay (CellTiter-Glo cell viability), MCF-7; format: cell-based; settings: 96 h
Protocol: as §2

[6] = tested on: HER2 high-expressing cancer cells SK-BR-3; experiment: Cytotoxicity assay (CellTiter-Glo cell viability), SK-BR-3; format: cell-based; settings: for IC50: Homo sapiens, SK-BR-3, 96 h, 96 h treatment
Protocol: as §1
as §1, with “4)” for “1)”, “5),” for “2),”, “6)” for “3)”, “The tested articles included conjugates EC302-2-4-1-1 and EC301-2-1-1-1, and a small molecule eribulin (structure is depicted above).” left out

## C=C1C[C@@H]2CC[C@@]34C[C@H]5O[C@H]6[C@@H](O3)[C@H]3O[C@H](CC[C@@H]3O[C@H]6[C@H]5O4)CC(=O)C[C@@H]3[C@@H](OC)[C@@H](C[C@H](O)CN)O[C@H]3C[C@H]3O[C@@H](CC[C@@H]1O2)C[C@@H](C)C3=C [Eribulin]
[1]; Effect Example 1, NCI-N87, HER2 high
  cell proliferation-inhibitory effect, in words: sensitive
[1]; Effect Example 1, Table 4
  IC50: 0.448 nM
[1]; Effect Example 2, Table 5
  IC50: 0.501 nM
[2]
  effect on cell proliferation, in words: sensitive
[3]
  effect on cell proliferation, in words: sensitive
[4]; Effect Example 1, MDA-MB-468, HER2 negative
  cytotoxicity, in words: sensitive
[4]; Effect Example 1, Table 4
  IC50: 0.211 nM
[4]; Effect Example 2, Table 5
  IC50: 0.094 nM
[5]
  cytotoxicity, in words: sensitive
[6]; Effect Example 1, SK-BR-3, HER2 high
  cell proliferation-inhibitory effect, in words: sensitive
[6]; Effect Example 1, Table 4
  IC50: 0.298 nM
[6]; Effect Example 2, Table 5
  IC50: 0.211 nM

— patent publication US20260077056A1, “LINKER-PAYLOAD COMPOUND, CONJUGATES AND APPLICATIONS THEREOF” (priority 2022, published 2026)
